Experimental data: patent US5446058A, “(Fused) benz(thio)amides” (Ono Pharmaceutical Co., Ltd., priority 1984, dated 1995)

biological target: 5α-reductase; assay: Inhibitory activity on 5α-reductase in vitro; type: biochemical; settings: [4-14C]testosterone 5 μM, NADPH 5×10^-3 M, pH 7.4, 37° C., 60 mins; read-out: IC50, inhibitory activity on 5α-reductase (Table VII)
Experimental: Inhibitory activity of the compounds of the present invention on 5α-reductase was measured by the following method.
Inhibitory activity of the compounds of the present invention on 5α-reductase (IC50) in vitro was measured by the following method.
Compounds tested were incubated with radioactive [4-^14 C]testosterone (5 μM) and NADPH (5×10^-3 M) in the medium containing 5α-reductase, 0.09M Hepes (pH 7.4) and 0.22M sucrose at 37° C. for 60 mins. The reaction was stopped by adding solution of chloroform-methanol (1:2). The reaction mixture was centrifuged and the supernatant was separated by thin layer chromatography on silica gel using chloroform-methanol-acetic acid (99.2:0.6:0.2) as a developing solvent. Radioactivity of formed 5α-dihydrotestosterone was measured by TLC scanner. The values of IC50 were determined by the inhibition percents of 5α-reductase activity measured by the above procedure (see Endocrinal, Japon., 18, 179 (1971).).

Structure (SMILES) | IC50 [nM]
CCCCCc1ccc(C(C)=CC(=O)Nc2ccccc2SCCCC(=O)O)cc1 [4(206)] | 4000
CCCCCc1ccc(C=CC(=O)Nc2ccccc2OCCCC(=O)O)cc1 [6(1)] | 5000

test system: LTD4; assay: Antagonistic activity on LTD4 in vitro (contraction of isolated ilem in a Magnus tube); settings: antagonism of LTD4, guinea pig ilem, 5×10^-9 g/ml LTD4, 37° C.; read-out: IC50 (Table III, comparison of activity by alkylene chain change)
Experimental: Antagonistic activity of the compounds of the present invention on LTD4 were measured by the following method.
A segment of ilem (2.5 cm) was removed from guinea pig 300-400 g and suspended in a Magnus tube containing Tyrodes solution. The tube was maintained at 37° C. and aerated with 95% O2 -5% CO2. After stabilizing from 30 mins, 5×10^-9 g/ml of LTD4 was added to the Magnus tube. Contraction length at the time and contraction lengths when the compounds of the present invention were challenged at some concentrations were measured, and the IC50 value were calculated.

Structure (SMILES) | IC50 [nM]
CCCCCc1ccc(CC(=O)Nc2cccc3c2OC(c2nn[nH]n2)CO3)cc1 (centres unmarked) | 8300
CCCCCc1ccc(C(=O)Nc2cccc3c2OC(c2nn[nH]n2)CO3)cc1 (centres unmarked) [drawing 40] | 2600
CCCCCCCCCCCCC/C=C/C(=O)Nc1cccc2c1OC(c1nn[nH]n1)CO2 (centres unmarked) | 20000
CCCCCc1ccc(CCC(=O)Nc2cccc3c2OC(c2nn[nH]n2)CO3)cc1 (centres unmarked) | 660
CCCc1ccc(/C=C/C=C/C(=O)Nc2cccc3c2OC(c2nn[nH]n2)CO3)cc1 (centres unmarked) | 74

same assay, conditions: antagonism of LTD4, guinea pig ilem, 5×10^-9 g/ml LTD4, 37° C.; read-out: IC50 (Table IV, comparison of activity by skeleton structure change (1))

Structure (SMILES) | IC50 [nM]
CCCCCc1ccc(/C=C/C(=O)Nc2cccc3c2SC(c2nn[nH]n2)CS3)cc1 (centres unmarked) | 690
CCCCCc1ccc(/C=C/C(=O)Nc2cccc3c(=O)cc(-c4nn[nH]n4)oc23)cc1 | 30
CCCCCc1ccc(/C=C/C(=O)Nc2cccc3c2OC(c2nn[nH]n2)CO3)cc1 (centres unmarked) | 370

same assay, conditions: antagonism of LTD4, guinea pig ilem, 5×10^-9 g/ml LTD4, 37° C.; read-out: IC50 (Table V, comparison of activity by skeleton structure change (2))

Structure (SMILES) | IC50 [nM]
CCCCCc1ccc(C(=O)Nc2cccc3c2OC(C(=O)O)CO3)cc1 (centres unmarked) | 1200
CCCCCc1ccc(C(=O)Nc2cccc3c2OC(c2nn[nH]n2)CO3)cc1 (centres unmarked) [drawing 49] | 2600
CCCCCc1ccc(C(=O)Nc2cccc3c(=O)cc(-c4nn[nH]n4)oc23)cc1 | 180

same assay, conditions: antagonism of LTD4, guinea pig ilem, 5×10^-9 g/ml LTD4, 37° C.; read-out: IC50 (Table VI, comparison of activity by skeleton structure change (3))

Structure (SMILES) | IC50 [nM]
O=C(Nc1cccc2ccc(-c3nn[nH]n3)nc12)c1ccc(OCCCCc2ccccc2)cc1 [1 (516)] | 2.6
O=C(Nc1cccc2c1OC(c1nn[nH]n1)CC2)c1ccc(OCCCCc2ccccc2)cc1 (centres unmarked) [1 (521)] | 1.3
O=C(Nc1cccc2ccc(-c3nn[nH]n3)cc12)c1ccc(OCCCCc2ccccc2)cc1 [1 (514)] | 4.6
CCCCCCOc1ccc(C(=O)Nc2cccc3c2OC(c2nn[nH]n2)C3)cc1 (centres unmarked) [1 (505)] | 205
C=CCCCC=CCOc1ccc(C(=O)Nc2cccc3c2OC(c2nn[nH]n2)CCO3)cc1 (centres unmarked) [1 (518)] | 33
CCCCCCOc1ccc(C(=O)Nc2cccc3cc(-c4nn[nH]n4)oc23)cc1 [1 (501)] | 76

test system: not listed separately; assay: Acute toxicity (LD50), intravenous, male mice; settings: mouse, in vivo, intravenous administration

Structure (SMILES) | LD50 [mg/kg]
C=CCCC/C=C/COc1ccc(C(=O)Nc2cccc3c(=O)cc(-c4nn[nH]n4)oc23)cc1 [1(212)] | > 1000
O=C(Nc1cccc2c(=O)cc(-c3nnn[nH]3)oc12)c1ccc(OCCCCc2ccccc2)cc1 [1(230)] | > 1000
C=CCCC/C=C/COc1ccc(C(=O)Nc2cc(C)cc3c(=O)cc(-c4nn[nH]n4)oc23)cc1 [1(247)] | > 1000
O=C(Nc1cccc2c1OC(c1nnn[nH]1)CO2)c1ccc(OCCCCc2ccccc2)cc1 (centres unmarked) [1(76)] | > 1000
